Data: PubChem BioAssay (NCI)
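Method: 48-hour compound exposure of cells in 96-well plates, five concentrations, linear interpolation of endpoints. TGI: total growth inhibition.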

Legend:
Test in all cases: NCI-60 cell line screen, 48 h
A498 renal = test system: A498 renal
A549 NSCLC = test system: A549 NSCLC
ACHN renal = test system: ACHN renal
MALME-3M melanoma = test system: MALME-3M melanoma
MCF7 breast = test system: MCF7 breast
NCI-H522 lung = test system: NCI-H522 lung
NCI/ADR-RES ovarian = test system: NCI/ADR-RES ovarian
OVCAR-3 ovarian = test system: OVCAR-3 ovarian
OVCAR-4 ovarian = test system: OVCAR-4 ovarian
SF-295 CNS = test system: SF-295 CNS
SN12C renal = test system: SN12C renal
SNB-75 CNS = test system: SNB-75 CNS
T-47D breast = test system: T-47D breast
UACC-62 melanoma = test system: UACC-62 melanoma
CCRF-CEM leukemia = test system: CCRF-CEM leukemia

| Structure (SMILES) | TGI (A498 renal) | TGI (A549 NSCLC) | TGI (ACHN renal) | TGI (MALME-3M melanoma) | TGI (MCF7 breast) | TGI (NCI-H522 lung) | TGI (NCI/ADR-RES ovarian) | TGI (OVCAR-3 ovarian) | TGI (OVCAR-4 ovarian) | TGI (SF-295 CNS) | TGI (SN12C renal) | TGI (SNB-75 CNS) | TGI (T-47D breast) | TGI (UACC-62 melanoma) | TGI (CCRF-CEM leukemia) |
| --- | --- | --- | --- | --- | --- | --- | --- | --- | --- | --- | --- | --- | --- | --- | --- |
| CC(C)=CCC[C@@H](C)/C=C/C=C(\C)C(=O)CC[C@@H]1CC[N@+]2(C)CCCC[C@H]12 | > 100 µM | > 100 µM | > 100 µM | > 100 µM | > 100 µM | > 100 µM | > 100 µM | > 100 µM | > 100 µM | > 100 µM | > 100 µM | > 100 µM | > 100 µM | > 100 µM |  |
| C#C[C@]1(O)CC[C@H]2[C@@H]3CCC4=C/C(=N/OCCN(C)C)CC[C@]4(C)[C@H]3CC[C@@]21C | > 100 µM | > 100 µM | > 100 µM | 60.6 µM | > 100 µM | 62.6 µM | > 100 µM | 65.2 µM | > 100 µM | 32.4 µM | > 100 µM | > 100 µM | > 100 µM | > 100 µM | 83.1 µM |
| COC(=O)C1CCC(=O)N1CN(C(C)=O)c1ccccc1Cl (stereo not drawn) | > 100 µM | > 100 µM | > 100 µM | > 100 µM | > 100 µM | > 100 µM | > 100 µM | > 100 µM | > 100 µM | > 100 µM | > 100 µM | > 100 µM | > 100 µM | > 100 µM |  |
| NC1=CN(CCCO)C2=N/C(=C\c3ccccc3)C(=O)N12 | > 100 µM | > 100 µM | > 100 µM | > 100 µM | > 100 µM | > 100 µM | > 100 µM | > 100 µM | > 100 µM | > 100 µM | > 100 µM | > 100 µM | > 100 µM | > 100 µM | > 100 µM |
| O=C1/C(=C\Oc2ccc(F)cc2)N2CCC1CC2 | > 100 µM | > 100 µM | > 100 µM | > 100 µM | > 100 µM | > 100 µM | > 100 µM | > 100 µM | > 100 µM | > 100 µM | > 100 µM | > 100 µM | > 100 µM | > 100 µM | > 100 µM |
| Oc1ccc(O)c(CNc2ccc(C(O)C(F)(F)F)cc2)c1 (stereo not drawn) | > 100 µM | > 100 µM | 26.6 µM | 31 µM | 69.2 µM | 5.67 µM | > 100 µM | 15.4 µM | 30.3 µM | 32.5 µM | 47.5 µM | > 100 µM | 61.5 µM | 35.8 µM | 33.5 µM |
| COC(=O)C(NC(=O)C(CC(=O)OC(C)(C)C)NC(=O)OC(C)(C)C)C(O)c1ccccc1 (stereo not drawn) | > 100 µM | > 100 µM | > 100 µM | > 100 µM | > 100 µM | > 100 µM | > 100 µM | > 100 µM | > 100 µM |  | > 100 µM | > 100 µM | > 100 µM | 70.8 µM | > 100 µM |
| Cc1ccc(NC(Nc2ccc(C)cc2C)=C(C(Cl)=C(Cl)Cl)[N+](=O)[O-])c(C)c1 | 36.3 µM | 28.4 µM | 28.5 µM | 31.8 µM | > 100 µM | 28 µM | > 100 µM | 29.7 µM | 33.2 µM |  | 33 µM | 22.1 µM | 32.1 µM | 31.9 µM | 15.2 µM |
| Cc1nc(N)c(N2CCN(C(=O)O)CC2)c(=O)[nH]1 | > 100 µM | > 100 µM | > 100 µM | > 100 µM | > 100 µM | > 100 µM | > 100 µM | > 100 µM | > 100 µM | > 100 µM | > 100 µM | > 100 µM | > 100 µM |  | > 100 µM |
| O=c1oc2ccccc2nc1/C=C(\O)c1ccc(Cl)cc1 | > 100 µM | > 100 µM | > 100 µM | > 100 µM | > 100 µM | > 100 µM | > 100 µM | > 100 µM | > 100 µM | > 100 µM | > 100 µM | > 100 µM | > 100 µM | > 100 µM | > 100 µM |
| Cc1cc(S(=O)(=O)Nc2n[nH]c(Nc3ccc(Cl)cc3)n2)c(S)cc1Cl | > 100 µM | > 100 µM | > 100 µM | > 100 µM | > 100 µM | > 100 µM | > 100 µM | > 100 µM | > 100 µM | > 100 µM | > 100 µM | > 100 µM | > 100 µM | > 100 µM | > 100 µM |
| COc1ccc(N=NC(=O)NC(Cc2ccccc2)C(=O)O)cc1 (stereo not drawn) | > 100 µM | > 100 µM | > 100 µM | > 100 µM | > 100 µM | > 100 µM | > 100 µM | > 100 µM | > 100 µM | > 100 µM | > 100 µM | > 100 µM | > 100 µM | > 100 µM | > 100 µM |
| COc1cc(NS(C)(=O)=O)ccc1Nc1cc[nH]c2ccc3nccc3c12 | 30.7 µM | 34.9 µM | 32.8 µM | 28.7 µM | 35.9 µM | 22.6 µM | > 100 µM | 29.4 µM | 29.7 µM | 32.9 µM | 28.2 µM |  | 33.2 µM | 32.5 µM | 40.9 µM |
| C=CCN(c1cc(OCc2ccccc2)c2[nH]cc(C)c2c1)S(C)(=O)=O | 90.9 µM | > 100 µM | > 100 µM | 88.7 µM | > 100 µM | > 100 µM | > 100 µM | > 100 µM | > 100 µM | > 100 µM | > 100 µM | 55.6 µM | 60.6 µM | > 100 µM | > 100 µM |
| O=C(O)CCCC(=O)Nn1c(Cc2ccc(Cl)cc2)n[nH]c1=O | > 100 µM | > 100 µM | > 100 µM | > 100 µM | > 100 µM | > 100 µM | > 100 µM | > 100 µM | > 100 µM | > 100 µM | > 100 µM |  | > 100 µM | > 100 µM | > 100 µM |
